Source: US9708314B2, “Heterocyclic amide compound” (NISSAN CHEMICAL INDUSTRIES, LTD., priority 2013, dated 2017)

Legend:
Assay type in all cases: in vivo
[1] = tested on: directly sowed Oryza sativa; assay: Test Example 3: effect on crop by application to foliage (Wagner pot, water depth 0.1-0.5 cm); conditions: Nineteenth Table; application to foliage; application herbicide amount 320 g/ha
In short: (§1)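 Greenhouse pot test, 25–30 °C, alluvial soil. Sown seedlings grown 14 days then sprayed on leaves and stems with emulsion diluted to target g/ha. Rating at 3 weeks, 0–5 scale (0 ≤5%, 5 ≥90%).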

Leptochloa chinensis = assay: Test Example 3: herbicidal effect by application to foliage (Wagner pot, water depth 0.1-0.5 cm); conditions: Nineteenth Table; application to foliage; application herbicide amount 320 g/ha
In short: as §1

[2] = tested on: Echinochloa crus-galli var. crus-galli; assay: as above; conditions: Nineteenth Table; application to foliage; application herbicide amount 320 g/ha
In short: as §1

Cyperus difformis = assay: as above; conditions: Nineteenth Table; application to foliage; application herbicide amount 320 g/ha
In short: as §1

Galium spurium = assay: Test Example 4: herbicidal effect by application to foliage (diluvial soil, plastic box); conditions: Application herbicide amount 320 g/ha
In short: (§2)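 Scores run from 0 (herbicidal ratio ≤5%) to 5 (≥90%, almost fully withered) and were assessed three weeks after foliar spraying. Seedlings had been raised for 14 days at 25-30° C in sterilized diluvial soil before treatment, with the emulsion diluted in water to the stated g/ha dose.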

Apera spica-venti. = assay: as above; conditions: Application herbicide amount 320 g/ha
In short: as §2

Chenopodium album = assay: as above; conditions: Application herbicide amount 320 g/ha
In short: as §2

Avena fatua = assay: as above; conditions: Application herbicide amount 320 g/ha
In short: as §2

[3] = tested on: Echinochloa crus-galli var. crus-galli; assay: as above; conditions: Application herbicide amount 320 g/ha
In short: as §2

Veronica persica = assay: as above; conditions: Application herbicide amount 320 g/ha
In short: as §2

Abutilon theophrasti = assay: as above; conditions: Application herbicide amount 320 g/ha
In short: as §2

Digitaria ciliaris = assay: as above; conditions: Application herbicide amount 320 g/ha
In short: as §2

Setaria viridis = assay: as above; conditions: Application herbicide amount 320 g/ha
In short: as §2

Lolium multiflorum Lam. = assay: as above; conditions: Application herbicide amount 320 g/ha
In short: as §2

Alopecurus myosuroides = assay: as above; conditions: Application herbicide amount 320 g/ha
In short: as §2

| SMILES | b (effect on crop grade) [1] | D (herbicidal effect grade) (Leptochloa chinensis) | H (herbicidal effect grade) [2] | E (herbicidal effect grade) (Cyperus difformis) | Q (Galium spurium) | L (Apera spica-venti.) | O (Chenopodium album) | I (Avena fatua) | H [3] | R (Veronica persica) | M (Abutilon theophrasti) | F (Digitaria ciliaris) | G (Setaria viridis) | K (Lolium multiflorum Lam.) | J (Alopecurus myosuroides) |
| --- | --- | --- | --- | --- | --- | --- | --- | --- | --- | --- | --- | --- | --- | --- | --- |
| Cc1nnc(NC(=O)c2ccc(C(F)(F)F)n3c(-c4ccc(Cl)nc4)nnc23)o1 [1-054] | 3 (Herbicidal ratio of 40% or more and less than 70%) | 5 (Herbicidal ratio of 90% or more (almost completely withered)) | 5 (Herbicidal ratio of 90% or more (almost completely withered)) | 5 (Herbicidal ratio of 90% or more (almost completely withered)) | 4 (Herbicidal ratio of 70% or more and less than 90%) | 3 (Herbicidal ratio of 40% or more and less than 70%) | 5 (Herbicidal ratio of 90% or more (almost completely withered)) | 3 (Herbicidal ratio of 40% or more and less than 70%) | 5 (Herbicidal ratio of 90% or more (almost completely withered)) | 5 (Herbicidal ratio of 90% or more (almost completely withered)) | 5 (Herbicidal ratio of 90% or more (almost completely withered)) | 5 (Herbicidal ratio of 90% or more (almost completely withered)) | 4 (Herbicidal ratio of 70% or more and less than 90%) | 3 (Herbicidal ratio of 40% or more and less than 70%) | 3 (Herbicidal ratio of 40% or more and less than 70%) |
| Cc1nnc(NC(=O)c2ccc(C(F)(F)F)n3c(-c4cccc(Cl)n4)nnc23)o1 [1-055] | 2 (Herbicidal ratio of 20% or more and less than 40%) | 4 (Herbicidal ratio of 70% or more and less than 90%) | 5 (Herbicidal ratio of 90% or more (almost completely withered)) | 5 (Herbicidal ratio of 90% or more (almost completely withered)) | 2 (Herbicidal ratio of 20% or more and less than 40%) | 3 (Herbicidal ratio of 40% or more and less than 70%) | 5 (Herbicidal ratio of 90% or more (almost completely withered)) | 1 (Herbicidal ratio of 5% or more and less than 20%) | 4 (Herbicidal ratio of 70% or more and less than 90%) | 4 (Herbicidal ratio of 70% or more and less than 90%) | 5 (Herbicidal ratio of 90% or more (almost completely withered)) | 4 (Herbicidal ratio of 70% or more and less than 90%) | 3 (Herbicidal ratio of 40% or more and less than 70%) | 2 (Herbicidal ratio of 20% or more and less than 40%) | 3 (Herbicidal ratio of 40% or more and less than 70%) |
| Cc1cc(-c2nnc3c(C(=O)Nc4nnc(C)o4)ccc(C(F)(F)F)n23)n(C)n1 [1-056] | 4 (Herbicidal ratio of 70% or more and less than 90%) | 5 (Herbicidal ratio of 90% or more (almost completely withered)) | 5 (Herbicidal ratio of 90% or more (almost completely withered)) | 5 (Herbicidal ratio of 90% or more (almost completely withered)) | 4 (Herbicidal ratio of 70% or more and less than 90%) | 3 (Herbicidal ratio of 40% or more and less than 70%) | 5 (Herbicidal ratio of 90% or more (almost completely withered)) | 3 (Herbicidal ratio of 40% or more and less than 70%) | 5 (Herbicidal ratio of 90% or more (almost completely withered)) | 5 (Herbicidal ratio of 90% or more (almost completely withered)) | 5 (Herbicidal ratio of 90% or more (almost completely withered)) | 5 (Herbicidal ratio of 90% or more (almost completely withered)) | 5 (Herbicidal ratio of 90% or more (almost completely withered)) | 2 (Herbicidal ratio of 20% or more and less than 40%) | 2 (Herbicidal ratio of 20% or more and less than 40%) |
| Cc1nnc(NC(=O)c2ccc(C(F)(F)F)n3c(-c4cccs4)nnc23)o1 [1-057] | 3 (Herbicidal ratio of 40% or more and less than 70%) | 5 (Herbicidal ratio of 90% or more (almost completely withered)) | 5 (Herbicidal ratio of 90% or more (almost completely withered)) | 5 (Herbicidal ratio of 90% or more (almost completely withered)) | 1 (Herbicidal ratio of 5% or more and less than 20%) | 2 (Herbicidal ratio of 20% or more and less than 40%) | 5 (Herbicidal ratio of 90% or more (almost completely withered)) | 3 (Herbicidal ratio of 40% or more and less than 70%) | 4 (Herbicidal ratio of 70% or more and less than 90%) | 5 (Herbicidal ratio of 90% or more (almost completely withered)) | 5 (Herbicidal ratio of 90% or more (almost completely withered)) | 4 (Herbicidal ratio of 70% or more and less than 90%) | 4 (Herbicidal ratio of 70% or more and less than 90%) | 2 (Herbicidal ratio of 20% or more and less than 40%) | 2 (Herbicidal ratio of 20% or more and less than 40%) |
| Cc1nnc(NC(=O)c2ccc(C(F)(F)F)n3c(-c4cncs4)nnc23)o1 [1-058] | 4 (Herbicidal ratio of 70% or more and less than 90%) | 5 (Herbicidal ratio of 90% or more (almost completely withered)) | 5 (Herbicidal ratio of 90% or more (almost completely withered)) | 5 (Herbicidal ratio of 90% or more (almost completely withered)) | 2 (Herbicidal ratio of 20% or more and less than 40%) | 2 (Herbicidal ratio of 20% or more and less than 40%) | 5 (Herbicidal ratio of 90% or more (almost completely withered)) | 3 (Herbicidal ratio of 40% or more and less than 70%) | 5 (Herbicidal ratio of 90% or more (almost completely withered)) | 5 (Herbicidal ratio of 90% or more (almost completely withered)) | 5 (Herbicidal ratio of 90% or more (almost completely withered)) | 5 (Herbicidal ratio of 90% or more (almost completely withered)) | 5 (Herbicidal ratio of 90% or more (almost completely withered)) | 3 (Herbicidal ratio of 40% or more and less than 70%) | 3 (Herbicidal ratio of 40% or more and less than 70%) |
| C#CCSc1nnc2c(C(=O)Nc3nnc(C)o3)ccc(C(F)(F)F)n12 [1-065] | 0 (Herbicidal ratio of 5% or less (almost no effect)) | 1 (Herbicidal ratio of 5% or more and less than 20%) | 3 (Herbicidal ratio of 40% or more and less than 70%) | 3 (Herbicidal ratio of 40% or more and less than 70%) | 0 (Herbicidal ratio of 5% or less (almost no effect)) | 0 (Herbicidal ratio of 5% or less (almost no effect)) | 5 (Herbicidal ratio of 90% or more (almost completely withered)) | 1 (Herbicidal ratio of 5% or more and less than 20%) | 1 (Herbicidal ratio of 5% or more and less than 20%) | 3 (Herbicidal ratio of 40% or more and less than 70%) | 3 (Herbicidal ratio of 40% or more and less than 70%) | 4 (Herbicidal ratio of 70% or more and less than 90%) | 1 (Herbicidal ratio of 5% or more and less than 20%) | 0 (Herbicidal ratio of 5% or less (almost no effect)) | 0 (Herbicidal ratio of 5% or less (almost no effect)) |
| Cc1nnc(NC(=O)c2ccc(C(F)(F)C(F)(F)F)n3c(C(C)C)nnc23)o1 [1-066] | 0 (Herbicidal ratio of 5% or less (almost no effect)) | 4 (Herbicidal ratio of 70% or more and less than 90%) | 1 (Herbicidal ratio of 5% or more and less than 20%) | 3 (Herbicidal ratio of 40% or more and less than 70%) | 1 (Herbicidal ratio of 5% or more and less than 20%) | 0 (Herbicidal ratio of 5% or less (almost no effect)) | 5 (Herbicidal ratio of 90% or more (almost completely withered)) | 1 (Herbicidal ratio of 5% or more and less than 20%) | 4 (Herbicidal ratio of 70% or more and less than 90%) | 4 (Herbicidal ratio of 70% or more and less than 90%) | 3 (Herbicidal ratio of 40% or more and less than 70%) | 3 (Herbicidal ratio of 40% or more and less than 70%) | 1 (Herbicidal ratio of 5% or more and less than 20%) | 0 (Herbicidal ratio of 5% or less (almost no effect)) | 0 (Herbicidal ratio of 5% or less (almost no effect)) |
